{"source": "ChEMBL document CHEMBL3044789", "about": "“Comparing weed and crop seedling response to pre-emergence pendimethalin application in Corchorus olitorius and Abelmoschus esculentus” (Crop Prot, 2006)", "key": {"Synedrella nodiflora [1]": {"tested_on": "Synedrella nodiflora", "assay": "Herbicidal activity against Synedrella nodiflora in Abelmoschus esculentus plots assessed as weed cover at 1.32 kg a.i/ha after 4 weeks (reference value: 22.6 +/- 0.49 %)", "type": "functional"}, "Talinum fruticosum": {"tested_on": "Talinum fruticosum", "assay": "Herbicidal activity against Talinum fruticosum in Abelmoschus esculentus plots assessed as weed cover at 0.99 kg a.i/ha after 4 weeks (reference value: 22.6 +/- 0.49 %)", "type": "functional"}, "Calopogonium mucunoides [2]": {"tested_on": "Calopogonium mucunoides", "assay": "Herbicidal activity against Calopogonium mucunoides in Abelmoschus esculentus plots assessed as weed cover at 0.66 kg a.i/ha after 4 weeks (reference value: 22.6 +/- 0.49 %)", "type": "functional"}, "Euphorbia heterophylla [3]": {"tested_on": "Euphorbia heterophylla", "assay": "Herbicidal activity against Euphorbia heterophylla in Abelmoschus esculentus plots assessed as weed cover at 0.66 kg a.i/ha after 4 weeks (reference value: 22.6 +/- 0.49 %)", "type": "functional"}, "Mimosa pudica [4]": {"tested_on": "Mimosa pudica", "assay": "Herbicidal activity against Mimosa pudica in Abelmoschus esculentus plots assessed as weed cover at 0.33 kg a.i/ha after 4 weeks (reference value: 22.6 +/- 0.49 %)", "type": "functional"}, "[5]": {"tested_on": "Rottboellia cochinchinensis", "assay": "Herbicidal activity against Rottboellia cochinchinensis in Abelmoschus esculentus plots assessed as weed cover at 0.33 kg a.i/ha after 4 weeks (reference value: 22.6 +/- 0.49 %)", "type": "functional"}, "Ageratum conyzoides [6]": {"tested_on": "Ageratum conyzoides", "assay": "Herbicidal activity against Ageratum conyzoides in Abelmoschus esculentus plots assessed as weed cover at 1.32 kg a.i/ha after 2 weeks (reference value: 63.5 +/- 0.29 %)", "type": "functional"}, "Synedrella nodiflora [7]": {"tested_on": "Synedrella nodiflora", "assay": "Herbicidal activity against Synedrella nodiflora in Abelmoschus esculentus plots assessed as minor weed growth at 1.32 kg a.i/ha after 2 weeks", "type": "functional"}, "Synedrella nodiflora [8]": {"tested_on": "Synedrella nodiflora", "assay": "Herbicidal activity against Synedrella nodiflora in Abelmoschus esculentus plots assessed as major weed growth at 0.33 kg a.i/ha after 2 weeks", "type": "functional"}, "Asteraceae": {"tested_on": "Asteraceae", "assay": "Herbicidal activity against Aspilia africana in Corchorus olitorius plots assessed as minor weed growth at 0.66 kg a.i/ha after 2 weeks", "type": "functional"}, "Ageratum conyzoides [9]": {"tested_on": "Ageratum conyzoides", "assay": "Herbicidal activity against Ageratum conyzoides in Corchorus olitorius plots assessed as major weed growth at 0.33 kg a.i/ha after 2 weeks", "type": "functional"}, "[10]": {"tested_on": "Rottboellia cochinchinensis", "assay": "Herbicidal activity against Rottboellia cochinchinensis in Abelmoschus esculentus plots assessed as weed recovery at 0.33 kg a.i/ha after 2 weeks (reference value: 60.1 +/- 0.46 %)", "type": "functional"}, "Euphorbia heterophylla [11]": {"tested_on": "Euphorbia heterophylla", "assay": "Herbicidal activity against Euphorbia heterophylla in Abelmoschus esculentus plots assessed as weed cover at 1.32 kg a.i/ha after 7 weeks (reference value: 14.7 +/- 0.46 %)", "type": "functional"}, "Synedrella nodiflora [12]": {"tested_on": "Synedrella nodiflora", "assay": "Herbicidal activity against Synedrella nodiflora in Abelmoschus esculentus plots assessed as weed cover at 1.32 kg a.i/ha after 7 weeks (reference value: 14.7 +/- 0.46 %)", "type": "functional"}, "Synedrella nodiflora [13]": {"tested_on": "Synedrella nodiflora", "assay": "Herbicidal activity against Synedrella nodiflora in Abelmoschus esculentus plots assessed as weed cover at 0.99 kg a.i/ha after 7 weeks (reference value: 14.7 +/- 0.46 %)", "type": "functional"}, "Mimosa pudica [14]": {"tested_on": "Mimosa pudica", "assay": "Herbicidal activity against Mimosa pudica in Abelmoschus esculentus plots assessed as weed cover at 0.33 kg a.i/ha after 7 weeks (reference value: 14.7 +/- 0.46 %)", "type": "functional"}, "Chromolaena odorata [15]": {"tested_on": "Chromolaena odorata", "assay": "Herbicidal activity against Chromolaena odorata in Corchorus olitorius plots assessed as weed recovery at 1.32 kg a.i/ha after 2 weeks (reference value: 78.3 +/- 0.74 %)", "type": "functional"}, "Calopogonium mucunoides [16]": {"tested_on": "Calopogonium mucunoides", "assay": "Herbicidal activity against Calopogonium mucunoides in Corchorus olitorius plots assessed as weed recovery at 0.99 kg a.i/ha after 2 weeks (reference value: 78.3 +/- 0.74 %)", "type": "functional"}, "Synedrella nodiflora [17]": {"tested_on": "Synedrella nodiflora", "assay": "Herbicidal activity against Synedrella nodiflora in Abelmoschus esculentus plots assessed as weed cover at 0.66 kg a.i/ha after 2 weeks (reference value: 63.5 +/- 0.29 %)", "type": "functional"}, "Synedrella nodiflora [18]": {"tested_on": "Synedrella nodiflora", "assay": "Herbicidal activity against Synedrella nodiflora in Abelmoschus esculentus plots assessed as weed cover at 0.33 kg a.i/ha after 2 weeks (reference value: 63.5 +/- 0.29 %)", "type": "functional"}, "Ageratum conyzoides [19]": {"tested_on": "Ageratum conyzoides", "assay": "Herbicidal activity against Ageratum conyzoides in Abelmoschus esculentus plots assessed as weed cover at 0.33 kg a.i/ha after 2 weeks (reference value: 63.5 +/- 0.29 %)", "type": "functional"}, "Corchorus olitorius [20]": {"tested_on": "Corchorus olitorius", "assay": "Phytotoxicity in Corchorus olitorius assessed as crop seedling injury at 1.32 kg a.i/ha after 2 weeks relative to untreated control", "type": "organism-based", "conditions": "in vivo, 336 h"}, "Euphorbia heterophylla [21]": {"tested_on": "Euphorbia heterophylla", "assay": "Herbicidal activity against Euphorbia heterophylla in Corchorus olitorius plots assessed as weed cover at 0.99 kg a.i/ha after 7 weeks (reference value: 1.7 +/- 0.56 %)", "type": "functional"}, "Abelmoschus esculentus [22]": {"tested_on": "Abelmoschus esculentus", "assay": "Phytotoxicity in Abelmoschus esculentus assessed as seedling emergence at 0.66 kg a.i/ha treated to soil after 7 weeks (reference value: 95 +/- 0.05 %)", "type": "organism-based", "conditions": "in vivo, other, 1176 h"}, "Corchorus olitorius [23]": {"tested_on": "Corchorus olitorius", "assay": "Phytotoxicity in Corchorus olitorius assessed as shoot length at 0.66 kg a.i/ha applied as solution after 7 weeks (reference value: 22.9 +/- 0.8 mm)", "type": "organism-based", "conditions": "in vivo, other, 1176 h"}, "Corchorus olitorius [24]": {"tested_on": "Corchorus olitorius", "assay": "Phytotoxicity in Corchorus olitorius assessed as shoot length at 0.33 kg a.i/ha applied as solution after 7 weeks (reference value: 22.9 +/- 0.8 mm)", "type": "organism-based", "conditions": "in vivo, other, 1176 h"}, "Calopogonium mucunoides [25]": {"tested_on": "Calopogonium mucunoides", "assay": "Herbicidal activity against Calopogonium mucunoides in Corchorus olitorius plots assessed as weed recovery at 0.66 kg a.i/ha after 2 weeks (reference value: 78.3 +/- 0.74 %)", "type": "functional"}, "Synedrella nodiflora [26]": {"tested_on": "Synedrella nodiflora", "assay": "Herbicidal activity against Synedrella nodiflora in Corchorus olitorius plots assessed as weed recovery at 0.66 kg a.i/ha after 2 weeks (reference value: 78.3 +/- 0.74 %)", "type": "functional"}, "Calopogonium mucunoides [27]": {"tested_on": "Calopogonium mucunoides", "assay": "Herbicidal activity against Calopogonium mucunoides in Corchorus olitorius plots assessed as weed cover at 0.66 kg a.i/ha after 7 weeks (reference value: 1.7 +/- 0.56 %)", "type": "functional"}, "Abelmoschus esculentus [28]": {"tested_on": "Abelmoschus esculentus", "assay": "Phytotoxicity in Abelmoschus esculentus assessed as root length at 0.66 kg a.i/ha applied as solution after 7 weeks (reference value: 23 +/- 0.34 mm)", "type": "organism-based", "conditions": "in vivo, other, 1176 h"}, "Commelina diffusa": {"tested_on": "Commelina diffusa", "assay": "Herbicidal activity against Commelina diffusa in Corchorus olitorius plots assessed as weed cover at 0.66 kg a.i/ha after 2 weeks (reference value: 81.7 +/- 0.43 %)", "type": "functional"}, "Cyperus rotundus": {"tested_on": "Cyperus rotundus", "assay": "Herbicidal activity against Cyperus rotundus form in Abelmoschus esculentus plots assessed as minor weed growth at 0.66 kg a.i/ha after 2 weeks", "type": "functional"}, "Chromolaena odorata [29]": {"tested_on": "Chromolaena odorata", "assay": "Herbicidal activity against Chromolaena odorata in Corchorus olitorius plots assessed as weed cover at 1.32 kg a.i/ha after 7 weeks (reference value: 1.7 +/- 0.56 %)", "type": "functional"}, "Abelmoschus esculentus [30]": {"tested_on": "Abelmoschus esculentus", "assay": "Phytotoxicity in Abelmoschus esculentus assessed as shoot length at 1.32 kg a.i/ha applied as solution after 7 weeks (reference value: 28.7 +/- 0.34 mm)", "type": "organism-based", "conditions": "in vivo, other, 1176 h"}, "Corchorus olitorius [31]": {"tested_on": "Corchorus olitorius", "assay": "Phytotoxicity in Corchorus olitorius assessed as seedling emergence at 0.99 kg a.i/ha treated to soil after 7 weeks (reference value: 95 +/- 0.05 %)", "type": "organism-based", "conditions": "in vivo, other, 1176 h"}, "Calopogonium mucunoides [32]": {"tested_on": "Calopogonium mucunoides", "assay": "Herbicidal activity against Calopogonium mucunoides in Corchorus olitorius plots assessed as weed cover at 0.99 kg a.i/ha after 4 weeks (reference value: 20.1+/- 0.57 %)", "type": "functional"}}, "data": [{"compound": "CCC(CC)Nc1c([N+](=O)[O-])cc(C)c(C)c1[N+](=O)[O-]", "note": "[PENDIMETHALIN]", "values": [{"measurement": "Activity", "setting": "Synedrella nodiflora [1]", "result": 36.2, "unit": "%"}, {"measurement": "Activity", "setting": "Talinum fruticosum", "result": 39.2, "unit": "%"}, {"measurement": "Activity", "setting": "Calopogonium mucunoides [2]", "result": 47.9, "unit": "%"}, {"measurement": "Activity", "setting": "Euphorbia heterophylla [3]", "result": 47.9, "unit": "%"}, {"measurement": "Activity", "setting": "Mimosa pudica [4]", "result": 53.8, "unit": "%"}, {"measurement": "Activity", "setting": "[5]", "result": 53.8, "unit": "%"}, {"measurement": "Activity", "setting": "Ageratum conyzoides [6]", "result": 45, "unit": "%"}, {"measurement": "Activity", "setting": "Synedrella nodiflora [7]", "result": "1 /m2"}, {"measurement": "Activity", "setting": "Synedrella nodiflora [8]", "result": "31 /m2"}, {"measurement": "Activity", "setting": "Asteraceae", "result": "1 /m2"}, {"measurement": "Activity", "setting": "Ageratum conyzoides [9]", "result": "31 /m2"}, {"measurement": "Activity", "setting": "[10]", "result": 39.2, "unit": "%"}, {"measurement": "Activity", "setting": "Euphorbia heterophylla [11]", "result": 82.4, "unit": "%"}, {"measurement": "Activity", "setting": "Synedrella nodiflora [12]", "result": 82.4, "unit": "%"}, {"measurement": "Activity", "setting": "Synedrella nodiflora [13]", "result": 83.9, "unit": "%"}, {"measurement": "Activity", "setting": "Mimosa pudica [14]", "result": 90, "unit": "%"}, {"measurement": "Activity", "setting": "Chromolaena odorata [15]", "result": 13.3, "unit": "%"}, {"measurement": "Activity", "setting": "Calopogonium mucunoides [16]", "result": 21.7, "unit": "%"}, {"measurement": "Activity", "setting": "Synedrella nodiflora [17]", "result": 50.8, "unit": "%"}, {"measurement": "Activity", "setting": "Synedrella nodiflora [18]", "result": 56.8, "unit": "%"}, {"measurement": "Activity", "setting": "Ageratum conyzoides [19]", "result": 56.8, "unit": "%"}, {"measurement": "Activity", "setting": "Corchorus olitorius [20]", "result": 76.7, "unit": "%"}, {"measurement": "Activity", "setting": "Euphorbia heterophylla [21]", "result": 95, "unit": "%"}, {"measurement": "Activity", "setting": "Abelmoschus esculentus [22]", "result": 82, "unit": "%"}, {"measurement": "Activity", "setting": "Corchorus olitorius [23]", "result": 6, "unit": "mm"}, {"measurement": "Activity", "setting": "Corchorus olitorius [24]", "result": 7, "unit": "mm"}, {"measurement": "Activity", "setting": "Calopogonium mucunoides [25]", "result": 33.3, "unit": "%"}, {"measurement": "Activity", "setting": "Synedrella nodiflora [26]", "result": 33.3, "unit": "%"}, {"measurement": "Activity", "setting": "Calopogonium mucunoides [27]", "result": 100, "unit": "%"}, {"measurement": "Activity", "setting": "Abelmoschus esculentus [28]", "result": 11.8, "unit": "mm"}, {"measurement": "Activity", "setting": "Commelina diffusa", "result": 51.7, "unit": "%"}, {"measurement": "Activity", "setting": "Cyperus rotundus", "result": "1 /m2"}, {"measurement": "Activity", "setting": "Chromolaena odorata [29]", "result": 95, "unit": "%"}, {"measurement": "Activity", "setting": "Abelmoschus esculentus [30]", "result": 14.6, "unit": "mm"}, {"measurement": "Activity", "setting": "Corchorus olitorius [31]", "result": 86.7, "unit": "%"}, {"measurement": "Activity", "setting": "Calopogonium mucunoides [32]", "result": 48.3, "unit": "%"}]}]}
